# Assay results from patent US20210345614A1, “APPLICATION OF 7-CARBOXYBENZO[1,2,3]THIADIAZOLE AMIDES AS PLANT STIMULANTS” (ADAM MICKIEWICZ UNIVERSITY FOUNDATION, priority 2015, published 2021).
# Where “and” joins values, the source holds several entries; their conditions need not be identical. Equal values may be shown once.
# Columns and labels:
# [1] = tested on: potato virus Y (PVY); assay: Field experiment on potato, PVY infection of tubers by DAS ELISA; type: in vivo, potato variety Altesse; conditions: for % of tubes infected by PVY Virus: field
# [2] = tested on: Pyrenophora teres; assay: Field test on barley, fungal infection by Pyrenophora teres; type: in vivo, Hordeum vulgare (spring); conditions: Example 27: BTHWA 20 mg/L with Trend 90 EC, six foliar applications at 10 days intervals; harvested 13 days after last treatment
# Procedure: The test was conducted on a variety of barley Hordeum vulgare (spring). As such, six applications of the active substance solution was made. The study was conducted on fields of about 25 m^2 in quadruplicate for each combination tested. […] (with the addition of commercial adjuvant) followed by treatment with common fungicide (tebukonazole in formulation containing 250 g of active substance to be applied per 1 ha) in reducing infection of fungi Pyrenophora teres in barley (Hordeum vulgare (spring)) was performed. […] Six applications of the active substance BTHWA solution were made. As a control, one application of fungicide was performed at the time as indicated on the product label. The study was conducted on fields of about 25 m^2 in quadruplicate for each combination tested. […] The fungicide was applied in an amount of 33% its recommended dose (83 g/ha). Six applications of the active substance BTHWA solution were made. As a control, one application of fungicide was performed at the time as indicated on the product label. The study was conducted on fields of about 25 m^2 in quadruplicate for each combination tested.
# [3] = tested on: Tomato plants; assay: Protection against abiotic stress in tomato caused by lack of water; type: in vivo; conditions: watered twice 20 mg/L; 10 days after cessation of watering
# Procedure: Tomato plants in the phase of first pair of developed true leaves were watered twice with BTHWA at concentration of 20 mg/L, at a weekly intervals. Control tomato plants were treated with water only. A week after the second treatment, plants were exposed to a stress factor in the form of lack of access to water.
# [4] = tested on: powdery mildew fungi; assay: BTHWA effect on the infectivity of fungi, growth in nutrition medium; type: cell-based; conditions: BTHWA 40 mg/L formulation, after 2 days
# Procedure: Purified tobacco mosaic virus (TMV) at a concentration of approx. 3 μg/ml was mixed with N-methyl-N-methoxy-7-carboxybenzo[1,2,3]thiadiazole amide (BTHWA) formulation (concentration 40 mg/L) in a 1:1 volume ratio and incubated for 30 min at room temperature (treated leaves). The control was TMV incubated in water. Both virus suspensions were used to mechanically infect tobacco leaves cv. xanthi. Local necrotic spots (hypersensitivity, local infection) produced on the tobacco leaves were measured.
# The procedure as described in Example 1 was followed, however, a powdery mildew fungi was used, which was then incubated in a nutrition medium.
# [5] = tested on: Tobacco plants; assay: Protection against abiotic stress in tobacco caused by lack of water; type: in vivo; conditions: watered twice 20 mg/L; 10 days after cessation of watering
# Procedure: Tobacco plants at the stage of 3 developed leaves were watered twice with BTHWA at concentration of 20 mg/L, at a weekly intervals. Control […] plants were watered with water only. A week after the second treatment, plants were exposed to a stress factor in the form of lack of access to water.
# [6] = tested on: Pseudomonas syringe pv. tomato; assay: Protection of tomato against bacterial infection of Pseudomonas syringe pv. tomato; type: in vivo, Tomato Lycopersicon esculentum Mill; conditions: sprayed twice, 20 mg/L
# Procedure: Tomato plants in the phase of first pair of developed true leaves were watered twice with BTHWA at a concentration of 20 mg/L, at a weekly interval. Control tomato plants were treated with water only. One week after the second treatment Pseudomonas syringe pv. tomato bacterial suspension at a concentration of 10^5 CFU/cm^3 was introduced to the leaf using an insulin syringe (without a needle). Bacterial suspension was prepared from two-day Pseudomonas syringe pv. tomato culture on solid medium. Protection against biotic stress was evaluated based on the amount of bacterial growth in the leaves at the point of introduction followed by the formation of necrotic spots, and this compared with the control. […] The procedure as described in Example 16 was followed, however, the plants were sprayed. BTHWA at the concentration of 20 mg/L was applied twice by spraying.
# [7] = tested on: tobacco mosaic virus (TMV); assay: TMV-tobacco cv. xanthi model, protection against biotic stress (necrotic spots); type: in vivo, Nicotiana tabacum cv. xanthi; conditions: for Resistance induction [%] (Reduction of necrotic spots related to control): evaluated after another 4 days
# Procedure: Tobacco plants (Nicotiana tabacum) cv. xanthi at the stage of three developed leaves was watered (i.e. applied to the roots) twice with BTHWA solution of 10 mg/L, in one-week intervals. Control tobacco plants were irrigated with water only. […] To assess the biological effectiveness in protecting plants against biotic stress, the TMV-tobacco cv. xanthi model was used. This pathogen-plant model includes determining the hypersensitivity interaction phenomena with formation of necrotic spots which are quantifiable.
# Tobacco plants (Nicotiana tabacum) cv. xanthi at the stage of three developed leaves were sprayed once with BION™ or BTHWA solutions at a concentration of 20 mg/L. A week later, the plants were mechanically infected with TMV virus by repeatedly rubbing the leaves with carborundum steeped in a suspension of the purified virus at the concentration of approx. 2 μg/ml. The level of protection against biotic stress was assessed by comparing the number of necrotic spots caused by TMV on the leaves of plants treated by BTHWA or BION™ and compared to the control (plant sprayed with water only).
# Reduction of the amount of necrotic spots indicates protection against influence of the biotic factor on the plant.
# The procedure as described in Example 4 was followed, however, the treated and control plants were divided into three batches and their leaves were inoculated with a virus, respectively after 1, 2, and 3 weeks past the last treatment with BTHWA or water only.
# After six days, plants treated with a solution of the working fluid at a BTHWA concentration <100 mg/L were inoculated with tobacco mosaic virus (TMV) in order to determine the degree of induction of resistance caused by the formulation. After another 4 days of infection by TMV, the level of infection was evaluated by determining the number and size of necrotic spot caused by viral disease oi the plant leaves relative to the control.
# Research on the durability of the induced resistance effect on the model of tobacco plants against TMV virus was performed. […] The group of plants were then infected with the virus after 1, 3, 6, 10, 15, 20, 25 and 30 days (Table 3).
# [8] = tested on: tobacco mosaic virus (TMV); assay: as above; type: in vivo, Nicotiana tabacum cv. xanthi; conditions: sprayed twice at weekly intervals with 10 mg/L
# [9] = watered once with 100 ml of 20 mg/L
structure (smiles),measurement,setting,value
"CON(C)C(=O)c1cccc2nnsc12 [BTHWA, N-methyl-N-methoxy-7-carboxybenzo[1,2,3]thiadiazole amide]",reduction in the amount of PVY virus occurrence in the treated plants,"[1]; foliar application 20 mg/L of operational fluid, field conditions",~50%
same,% of tubes infected by PVY Virus,"[1]; foliar application 20 mg/L with mineral oil adjuvant, 7 days intervals",44.2%
same,% of tubes infected by PVY Virus,[1]; tuber dressing 20 mg/L + foliar application 20 mg/L,40.7%
same,% of infection,[2],17% and 17.50%
same,total mass of the untreated plants lower than the weight of the treated plants,[3],10%
same,differences in fungal growth on the treated plates and control,[4],< 5%
same,total mass of the untreated plants lower than the weight of the treated plants,[5],13%
same,protection against the effects of bacterial infection,[6],fully protecting plants against the effects of bacterial infection
same,Resistance induction [%] (Reduction of necrotic spots related to control),"[7]; spray 5 mg/L, TMV inoculation after six days",85%
same,Resistance induction [%] (Reduction of necrotic spots related to control),"[7]; spray 10 mg/L, TMV inoculation after six days",97%
same,Resistance induction [%] (Reduction of necrotic spots related to control),"[7]; spray 20 mg/L, TMV inoculation after six days",97%
same,Resistance induction [%] (Reduction of necrotic spots related to control),"[7]; spray 50 mg/L, TMV inoculation after six days",98%
same,lowest possible concentration at which the efficiency is maintained at greater than 90%,"[7]; spray, TMV inoculation after six days",10 mg/L
same,effectiveness in preventing biotic stress compared with BION,"[7]; sprayed once, 20 mg/L",more effective in preventing the occurrence of biotic stress
same,Average number of the local necrotic spots per leaf,"[7]; sprayed once, 20 mg/L, TMV infection a week later",0
same,Reduction of necrotic spots [%],"[7]; sprayed once, 20 mg/L, TMV infection a week later, vs control",100%
same,persistence of the resistance effect after a single application,[7]; [9],up to 25 days
same,time to activation of resistance after application,[7]; [9],after at least three days
same,% of induction (reduction of necrotic spots related to control),"[7]; watered once with 100 ml of 20 mg/L, virus inoculation 1 day after application",<10%
same,% of induction (reduction of necrotic spots related to control),"[7]; watered once with 100 ml of 20 mg/L, virus inoculation 3 days after application",10-20%
same,% of induction (reduction of necrotic spots related to control),"[7]; watered once with 100 ml of 20 mg/L, virus inoculation 6 days after application",94%
same,% of induction (reduction of necrotic spots related to control),"[7]; watered once with 100 ml of 20 mg/L, virus inoculation 10 days after application",96%
same,% of induction (reduction of necrotic spots related to control),"[7]; watered once with 100 ml of 20 mg/L, virus inoculation 15 days after application",95%
same,% of induction (reduction of necrotic spots related to control),"[7]; watered once with 100 ml of 20 mg/L, virus inoculation 20 days after application",95%
same,% of induction (reduction of necrotic spots related to control),"[7]; watered once with 100 ml of 20 mg/L, virus inoculation 25 days after application",91%
same,% of induction (reduction of necrotic spots related to control),"[7]; watered once with 100 ml of 20 mg/L, virus inoculation 30 days after application",85%
same,protection against biotic stress (number of necrotic spots vs control),"[7]; watered twice with 10 mg/L at one-week intervals, TMV infection a week after second treatment",restricts the influence of biotic factor
same,durability of protection against TMV biotic stress,"[7]; watering 10 mg/L twice, inoculation 1, 2 and 3 weeks after last treatment",effective after three weeks
same,protection against biotic stress caused by TMV infection,[8],protected the treated leaves against biotic stress
